Reference: US20120277368A1, “AQUEOUS DISPERSION PRESSURE-SENSITIVE ADHESIVE COMPOSITION AND PRESSURE-SENSITIVE ADHESIVE SHEET” (NITTO DENKO CORPORATION, priority 2011, published 2012)

Test: Solubility in water (25° C.) of crosslinking agent
Type: physicochemical
Description: Furthermore, the compound (B) is a water-soluble compound. […] (parts by weight of the compound capable of being dissolved per 100 parts by weight of water) is 1 g or more (1 g/100 g or more), preferably 10 g or more (10 g/100 g or more), and more preferably 30 g or more (30 g/100 g or more). The solubility of the compound (B) in water can be measured, for example, as follows.
Water (25° C.) and a compound (B), having the same weight, are mixed by using a stirrer under the conditions of a rotation speed of 300 rpm and 10 minutes, and the mixture is separated into an aqueous phase and an oil phase by centrifugation. The aqueous phase is then collected and dried at 120° C. for 1 hour, and the nonvolatile content (parts by weight of the nonvolatile component per 100 parts by weight of water) in the aqueous phase is determined from the weight loss on drying.

C1OC1CN(CC1CO1)CC1CO1 (stereo not shown) [N,N,N-tri(2,3-epoxypropyl)amine]
solubility in water (25° C.): 100 g/100 g
